In patent publication US8648076B2, “Cysteine protease inhibitors and their therapeutic applications” (Hybrigenics SA, priority 2005, dated 2014) one finds IC50 data, which are given here for 23 molecules.

Each structure is given as a SMILES string. Like-named read-outs stand apart in the source and are kept apart here. Some results are limits rather than exact numbers.

Holding throughout (type): biochemical
Experiment [1] addresses T1, USP7 (Homo sapiens, UniProt Q93009).
T1 construct: His tag (from pFastBac-HT vector) (N); made in house; host or cells: insect cells (Sf9 or High Five), baculovirus
Kind of experiment: USP7 activity assay.

The target of experiment [2] is Cathepsin B (Homo sapiens, UniProt P07858). Put plainly: Cathepsin B activity assay. The note with it: 36 μM z-RR-AMC, 3.6 nM enzyme, 30 min pre-incubation at 25° C., 60 min at 37° C.; sigmoidal fit; AF: Autofluorescent; read-out: cathepB (inhibition of cysteine protease activity). The procedure:
Cathepsin B was diluted in Cathepsin B buffer (20 mM Tris HCl pH 6.8; 1 mM EDTA; 1 mM DTT). Compounds stocks (100 mM) were stored at −20° C. in DMSO. […] Reactions were performed as duplicates in Black LJL 96 well plates (HE microplates; Molecular Devices; 20 μl final reaction volume). The substrate concentration for cathepsin B specificity assay was 36 μM (z-RR-AMC; Calbiochem). The concentration of the enzyme (Cathepsin B) in specificity assays was 3.6 nM. The concentrations were determined in order to perform specificity assays under initial velocities at fixed substrate concentration. Compounds were pre-incubated with enzymes for 30 minutes at 25° C. Reactions were initiated by addition of substrate to the plates containing the enzymes (+/− compounds) diluted in assay buffer. Reactions were incubated for 60 minutes at 37° C. Reactions were stopped by adding acetic acid (100 mM final). Readings were performed on a Pherastar Fluorescent Reader (BMG). δ Emission 380 nm; 6 Excitation=460 nm. Data (mean values+/− standard deviation) were analyzed as % of control (no compound) and plotted as percentage versus the Log of the compound concentration using GraphPad (Prism). Data were fitted to a sigmoidal model (variable slope).

Experiment [3] has as its target T2, USP5 (Homo sapiens, UniProt P45974).
T2 sequence (P45974 1-858): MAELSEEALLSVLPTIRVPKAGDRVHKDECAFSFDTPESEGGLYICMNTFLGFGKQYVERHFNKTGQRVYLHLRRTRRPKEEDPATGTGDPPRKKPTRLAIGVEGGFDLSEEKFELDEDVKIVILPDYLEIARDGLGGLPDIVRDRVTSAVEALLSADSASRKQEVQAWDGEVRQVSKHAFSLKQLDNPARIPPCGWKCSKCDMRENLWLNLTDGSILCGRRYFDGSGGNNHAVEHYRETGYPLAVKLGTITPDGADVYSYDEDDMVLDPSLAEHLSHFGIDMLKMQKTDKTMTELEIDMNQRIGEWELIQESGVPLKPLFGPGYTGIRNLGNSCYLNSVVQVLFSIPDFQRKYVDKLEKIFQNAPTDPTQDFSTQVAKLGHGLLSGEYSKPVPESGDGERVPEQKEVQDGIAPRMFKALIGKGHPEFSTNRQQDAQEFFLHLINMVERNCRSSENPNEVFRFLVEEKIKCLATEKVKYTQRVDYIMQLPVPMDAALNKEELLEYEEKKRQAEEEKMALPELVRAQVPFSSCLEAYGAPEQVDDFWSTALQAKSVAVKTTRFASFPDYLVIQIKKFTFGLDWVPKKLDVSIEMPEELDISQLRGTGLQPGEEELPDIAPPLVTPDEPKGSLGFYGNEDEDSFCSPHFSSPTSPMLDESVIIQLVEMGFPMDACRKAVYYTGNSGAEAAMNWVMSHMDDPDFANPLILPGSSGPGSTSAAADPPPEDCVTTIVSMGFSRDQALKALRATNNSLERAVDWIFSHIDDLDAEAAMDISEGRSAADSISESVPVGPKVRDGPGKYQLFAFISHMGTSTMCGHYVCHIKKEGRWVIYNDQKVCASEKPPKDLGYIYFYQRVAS
Kind of experiment: USP5 activity assay. The conditions noted are these: 400 nM Ub-AMC, 300 pM enzyme, 30 min pre-incubation at 25° C., 60 min at 37° C.; sigmoidal fit; AF: Autofluorescent; read-out: USP 5 (inhibition of cysteine protease activity). The protocol: Bovine Serum Albumin 0.05 mg·ml^−1 pH7.6). Compounds stocks (100 mM) were stored at −20° C. in DMSO. […] Reactions were performed as duplicates in Black LJL 96 well plates (HE microplates; Molecular Devices; 20 μl final reaction volume). The substrate concentration for USP5 was 400 nM Ub-AMC (Boston Biochem). The concentrations of the enzyme (USP5) in specificity assays was 300 pM. The concentrations were determined in order to perform specificity assays under initial velocities at fixed substrate concentration. Compounds were pre-incubated with enzymes for 30 minutes at 25° C. Reactions were initiated by addition of substrate to the plates containing the enzymes (+/− compounds) diluted in assay buffer. Reactions were incubated for 60 minutes at 37° C. Reactions were stopped by adding acetic acid (100 mM final). Readings were performed on a Pherastar Fluorescent Reader (BMG). λ Emission 380 nm; λ Excitation=460 nm. Data (mean values +/− standard deviation) were analyzed as % of control (no compound) and plotted as percentage versus the Log of the compound concentration using GraphPad (Prism). Data were fitted to a sigmoidal model (variable slope).

Setting [4] is: 400 nM Ub-AMC, 152 pM enzyme, 30 min pre-incubation at 25° C., 60 min at 37° C., sigmoidal fit, read-out: USP 7 (inhibition of cysteine protease activity).

T1 sequence (Q93009 whole entry): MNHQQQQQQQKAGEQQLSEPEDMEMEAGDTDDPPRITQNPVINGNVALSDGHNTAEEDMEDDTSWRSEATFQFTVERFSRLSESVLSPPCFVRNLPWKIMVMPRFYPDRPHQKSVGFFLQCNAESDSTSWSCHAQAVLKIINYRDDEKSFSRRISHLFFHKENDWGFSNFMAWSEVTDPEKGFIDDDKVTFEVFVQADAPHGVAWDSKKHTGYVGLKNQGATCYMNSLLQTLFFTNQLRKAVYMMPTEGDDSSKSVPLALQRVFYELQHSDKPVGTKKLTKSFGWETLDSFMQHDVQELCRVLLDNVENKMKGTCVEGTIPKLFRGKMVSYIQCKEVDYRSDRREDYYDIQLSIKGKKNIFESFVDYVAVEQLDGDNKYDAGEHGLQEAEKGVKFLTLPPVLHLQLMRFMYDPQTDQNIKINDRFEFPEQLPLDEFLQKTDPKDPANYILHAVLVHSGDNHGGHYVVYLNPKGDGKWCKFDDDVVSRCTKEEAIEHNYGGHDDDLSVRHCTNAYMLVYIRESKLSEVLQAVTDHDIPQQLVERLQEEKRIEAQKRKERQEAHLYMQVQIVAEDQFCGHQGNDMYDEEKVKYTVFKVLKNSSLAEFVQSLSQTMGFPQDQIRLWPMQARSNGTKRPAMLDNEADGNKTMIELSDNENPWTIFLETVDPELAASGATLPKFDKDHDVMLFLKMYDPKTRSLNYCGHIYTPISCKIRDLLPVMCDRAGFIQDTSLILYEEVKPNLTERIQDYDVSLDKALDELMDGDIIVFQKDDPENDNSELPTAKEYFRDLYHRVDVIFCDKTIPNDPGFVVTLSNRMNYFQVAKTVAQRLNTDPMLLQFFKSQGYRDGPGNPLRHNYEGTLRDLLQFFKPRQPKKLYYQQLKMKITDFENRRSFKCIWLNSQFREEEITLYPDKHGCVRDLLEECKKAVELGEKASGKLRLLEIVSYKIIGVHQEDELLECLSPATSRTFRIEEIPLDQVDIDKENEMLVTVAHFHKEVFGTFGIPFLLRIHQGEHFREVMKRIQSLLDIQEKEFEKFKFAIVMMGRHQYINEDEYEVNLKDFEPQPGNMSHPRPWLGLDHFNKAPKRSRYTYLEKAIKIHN

On to `N#Cc1nc2c(nc1Cl)-c1ccccc1C2=O` [Example 9, 3-chloro-9-oxo-9H-indeno[1,2-b]pyrazine-2-carbonitrile], for which the IC50 in experiment [1] (setting [4]), in experiment [2] and in experiment [3] was greater than 100 µM in each case.
`N#Cc1nc2c(nc1C#N)-c1ccccc1C2=NO` [Example 12, 9-[hydroxyimino]-9H-indeno[1,2-b]pyrazine-2,3-dicarbonitrile]: the IC50 in experiment [1] (setting [4]) is greater than 100 µM; in experiment [2], 21 µM; in experiment [3], 45 µM.
As to `CON=C1c2ccccc2-c2nc(C#N)c(C#N)nc21` [Example 13a, 9-(methoxyimino)-9H-indeno[1,2-b]pyrazine-2,3-dicarbonitrile], the IC50 in experiment [1] is greater than 100 µM; in experiment [2] it was greater than 100 µM; in experiment [3], 19.5 µM.
As to `N#Cc1nc2c(nc1C#N)-c1ccccc1/C2=N/Oc1ccccc1` [Example 13e, 9-Phenoxyimino-9H-indeno[1,2-b]pyrazine-2,3-dicarbonitrile], the IC50 in experiment [1] (setting [4]) is greater than 100 µM; in experiment [2], greater than 100 µM; in experiment [3] it was 32 µM.
`Cc1cccc2c1Cc1nc(C#N)c(C#N)nc1-2` [Example 16c, 8-Methyl-9H-indeno[1,2-b]pyrazine-2,3-dicarbonitrile]: the IC50 in experiment [1] (setting [4]), in experiment [2] and in experiment [3] was greater than 100 µM each time.
Take `COc1cc2c(cc1OC)-c1nc(C#N)c(C#N)nc1C2=O` [Example 17b, 6,7-Dimethoxy-9-oxo-9H-indeno[1,2-b]pyrazine-2,3-dicarbonitrile]: the values for the IC50 in experiment [1] (setting [4]), in experiment [2] and in experiment [3] were 10.2 µM, greater than 100 µM and greater than 100 µM, respectively.
As for `Cc1cccc2c1C(=O)c1nc(C#N)c(C#N)nc1-2` [Example 17c, 8-Methyl-9-oxo-9H-indeno[1,2-b]pyrazine-2,3-dicarbonitrile], the IC50 is greater than 100 µM in experiment [1] (setting [4]), greater than 100 µM in experiment [2] and 60 µM in experiment [3].
With `COc1ccc2c(c1OC)C(=O)c1nc(C#N)c(C#N)nc1-2` [Example 17d, 7,8-Dimethoxy-9-oxo-9H-indeno[1,2-b]pyrazine-2,3-dicarbonitrile], the IC50 in experiment [1] (setting [4]) stood at 18 µM; in experiment [2], 87 µM; in experiment [3], 2.5 µM.
`Cc1ccc2c(c1)-c1nc(C#N)c(C#N)nc1C2=O` [Example 17e, 6-Methyl-9-oxo-9H-indeno[1,2-b]pyrazine-2,3-dicarbonitrile]: the IC50 in experiment [1] (setting [4]) turned out to be 7.2 µM; in experiment [2] it was 20 µM; in experiment [3], 7.8 µM.
For `COc1ccc(OC)c2c1C(=O)c1nc(C#N)c(C#N)nc1-2` [Example 17f, 5,8-Dimethoxy-9-oxo-9H-indeno[1,2-b]pyrazine-2,3-dicarbonitrile], the IC50 amounted to 12.7 µM in experiment [1] (setting [4]), 52.6 µM in experiment [2] and 3.3 µM in experiment [3].
Consider `N#Cc1nc2c(nc1C#N)-c1ccc(Cl)cc1C2=O` [Example 17g, 7-Chloro-9-oxo-9H-indeno[1,2-b]pyrazine-2,3-dicarbonitrile], for which the IC50 in experiment [1] (setting [4]) was 0.53 µM; in experiment [2], 1.5 µM; in experiment [3] it was 0.16 µM.
For `N#Cc1nc2c(nc1C#N)-c1ccc(F)cc1C2=O` [Example 17h, 7-Fluoro-9-oxo-9H-indeno[1,2-b]pyrazine-2,3-dicarbonitrile], in that order: 4.3 µM, 6 µM and 1 µM.
As for `COc1ccc2c(c1)C(=O)c1nc(C#N)c(C#N)nc1-2` [Example 17i, 7-Methoxy-9-oxo-9H-indeno[1,2-b]pyrazine-2,3-dicarbonitrile], the IC50 in experiment [1] (setting [4]) is greater than 100 µM; in experiment [2], 32 µM; in experiment [3] it was 23 µM.
As for `N#Cc1nc2c(nc1C#N)-c1ccc(O)cc1C2=O` [Example 17j, 7-Hydroxy-9-oxo-9H-indeno[1,2-b]pyrazine-2,3-dicarbonitrile], the IC50 in experiment [1] (setting [4]) is 66 µM; in experiment [2], 40 µM; in experiment [3], greater than 100 µM.
Consider `N#Cc1nc2sc3ccccc3c2nc1C#N` [Example 19, benzo[4,5]thieno[2,3-b]pyrazine-2,3-dicarbonitrile], for which the IC50 in experiment [1] (setting [4]), in experiment [2] and in experiment [3] was greater than 100 µM throughout.
In the case of `N#Cc1nc2c(nc1C#N)C(=O)c1ccccc1C2=O` [Example 20, 5,10-dioxo-5,10-dihydro-benzo[g]quinoxaline-2,3-dicarbonitrile], the IC50 in experiment [1], in experiment [2] and in experiment [3] was greater than 100 µM throughout.
Regarding `N#CNc1nc2c(nc1C#N)C(=O)c1ccccc1-2` [Example 21, 2-cyano-9-oxo-9H-indeno[1,2-b]pyrazin-3-yl-cyanamide], the IC50 in experiment [1] (setting [4]), in experiment [2] and in experiment [3] was greater than 100 µM in each case.
On to `CCSc1nc2c(nc1C#N)C(=O)c1ccccc1-2` [Example 23, 3-ethylsulfanyl-9-oxo-9H-indeno[1,2-b]pyrazine-2-carbonitrile], for which the IC50 in experiment [1] (setting [4]), in experiment [2] and in experiment [3] was greater than 100 µM each time.
In the case of `N#Cc1nc2c(nc1CC(N)=O)-c1ccccc1C2=O` [Example 26, 2-(2-cyano-9-oxo-9H-indeno[1,2-b]pyrazin-3-yl)-acetamide], the IC50 in experiment [1] was greater than 100 µM; in experiment [2], greater than 100 µM; in experiment [3], 60 µM.
Turning to `N#Cc1nc2c(nc1C#N)-c1ccccc1C2=NOCCOc1ccccc1` [Example 27a, 9-(2-Phenoxy-ethoxyimino)-9H-indeno[1,2-b]pyrazine-2,3-dicarbonitrile], the IC50 in experiment [1], in experiment [2] and in experiment [3] was greater than 100 µM in each case.
With `N#Cc1nc2c(nc1C#N)-c1ccc(Cl)cc1C2=NOCCOc1ccccc1` [Example 27b, 7-Chloro-9-(2-phenoxy-ethoxyimino)-9H-indeno[1,2-b]pyrazine-2,3-dicarbonitrile], the IC50 in experiment [1], in experiment [2] and in experiment [3] was greater than 100 µM in each case.
As for `CCc1ccc2c(c1)-c1nc(C#N)c(C#N)nc1C2=O` [Example 32, 6-ethyl-9-oxo-9H-indeno[1,2-b]pyrazine-2,3-dicarbonitrile], the IC50 turned out to be 2.59 µM in experiment [1], 69 µM in experiment [2] and 1.67 µM in experiment [3].
Regarding `C=CCON=C1c2ccccc2-c2nc(C(N)=O)c(C#N)nc21` [Example 34a, 9-Allyloxyimino-2-cyano-9H-indeno[1,2-b]pyrazine-3-carboxylic acid amide], the figures for the IC50 in experiment [1], in experiment [2] and in experiment [3] were 0.5 µM, 3.5 µM and 0.143 µM, respectively.
